# Measurements from PMC11474028, “Lipopeptide antibiotics disrupt interactions of undecaprenyl phosphate with UptA” (Proceedings of the National Academy of Sciences of the …, 2024).
# “Also recorded” adds a separate entry of the source.
# Test system: UptA E32A
# Assay: Native MS of C55-P binding to UptA mutant E32A
# Design: species or system Bacillus subtilis
# Conditions: 2.5 µM E32A UptA and 10 µM C55-P, pH 8.0
# Description: Conserved arginine residues in the putative membrane reentrant loops of E. coli DedA proteins YqjA (R130) and YghB (R136) are important for the cellular role of these proteins ([36]). […] How these residues impact substrate interactions, however, is not known. Based on the model structure of UptA predicted by AlphaFold, the R112 residue should engage Q64 while R118 is able to form hydrogen bonds with E32, H119, and W146 to potentially stabilize the membrane reentrant loops (Fig. 3A). To test for the impact of these residues on C55-P binding, we generated the E32A, Q64A, R112A, R118A, H119A, and W146A UptA single mutants. After purification of the proteins, using the same protocol as the wild type (WT) (Materials and Methods and SI Appendix, Fig. […]
# Expression and purification of UptA
# Plasmids were used to transform chemically competent E. coli C43(DE3) cells (Lucigen) and selected on LB/Agar containing 100 μg/ml ampicillin at 37 °C. Single colonies were used to inoculate 60 mL LB containing 100 μg/ml ampicillin and were grown at 37 °C overnight for 16 h. […]
# The digestion mixture was subsequently incubated with 2-mL bed volume of nickel nitriloacetic acid (NTA) agarose resin to remove His-tagged GFP and TEV protease. […] Concentration was measured using a Biomate UV spectrophotometer at 280 nm using extinction coefficients calculated from their predicted amino […]
smiles,measurement,value
"CC(C)=CCC/C(C)=C/CC/C(C)=C/CC/C(C)=C\CC/C(C)=C\CC/C(C)=C\CC/C(C)=C\CC/C(C)=C\CC/C(C)=C\CC/C(C)=C\CC/C(C)=C\COP(=O)(O)O [C55-P, undecaprenyl phosphate]",C55-P binding to E32A UptA dimers versus monomers (in words),more significantly than the monomeric form; also recorded: relative intensity of ligand-bound dimers is significantly higher than the ligand-bound monomers
same,impact of C55-P binding on monomer–dimer ratio of E32A UptA (in words),modest increase in the dimer fraction; also recorded: only a modest impact on the monomer–dimer ratios
